Measured values: PubChem BioAssay (NCI)
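96-well plates; 48 h exposure; 5 concentrations. Endpoints by linear interpolation between flanking doses. Not reached: highest tested concentration assigned. At the TGI there is no net growth.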

Legend:
Assay in all cases: growth of human tumour cells (NCI), 48 h
[1] = system: K-562 leukemia
[2] = system: PC-3 prostate
[3] = system: OVCAR-8 ovarian
[4] = system: HOP-92 NSCLC
[5] = system: HCT-15 colon
[6] = system: RXF 393 renal
[7] = system: A498 renal
[8] = system: MDA-N
[9] = system: MALME-3M melanoma
[10] = system: T-47D breast
[11] = system: SK-OV-3 ovarian
[12] = system: OVCAR-5 ovarian
[13] = system: SW-620 colon
[14] = system: OVCAR-3 ovarian
[15] = system: SF-539 CNS
[16] = system: LOX IMVI melanoma
[17] = system: UACC-62 melanoma
[18] = system: NCI/ADR-RES ovarian
[19] = system: NCI-H23 lung
[20] = system: SF-268 CNS
[21] = system: SK-MEL-28 melanoma
[22] = system: BT-549 breast
[23] = system: NCI-H460 lung
[24] = system: HL-60(TB) leukemia
[25] = system: CAKI-1 renal
[26] = system: SF-295 CNS
[27] = system: IGROV1 ovarian
[28] = system: UACC-257 melanoma
[29] = system: NCI-H522 lung
[30] = system: OVCAR-4 ovarian
[31] = system: DU-145 prostate
[32] = system: MOLT-4 leukemia
[33] = system: A549 NSCLC
[34] = system: SN12C renal
[35] = system: SK-MEL-2 melanoma
[36] = system: CCRF-CEM leukemia
[37] = system: KM12 colon
[38] = system: MCF7 breast
[39] = system: 786-0 renal
[40] = system: HS 578T breast
[41] = system: ACHN renal
[42] = system: U251 CNS
[43] = system: HCT-116 colon
[44] = system: SK-MEL-5 melanoma
[45] = system: UO-31 renal
[46] = system: NCI-H226 lung
[47] = system: M14 melanoma
[48] = system: RPMI-8226 leukemia
[49] = system: SNB-19 CNS
[50] = system: MDA-MB-435
[51] = system: HCC-2998 colon
[52] = system: EKVX NSCLC
[53] = system: SR leukemia
[54] = system: MDA-MB-231 breast
[55] = system: COLO 205 colon
[56] = system: HT29 colon
[57] = system: TK-10 renal
[58] = system: HOP-62 NSCLC
[59] = system: SNB-75 CNS

Q: Which results are given for Cc1ccc(S(=O)(=O)N/N=C2\CCCCCCCCCCC2CN(C)C)cc1 (stereo not drawn)?
A: TGI [1]: 56.5 µM; TGI [2]: 30.3 µM; TGI [3]: 30.7 µM; TGI [4]: 24.7 µM; TGI [5]: 29 µM; TGI [6]: 26.6 µM; TGI [7]: 34.9 µM; TGI [8]: 32.8 µM; TGI [9]: 30.9 µM; TGI [10]: 30.2 µM; TGI [11]: 36 µM; TGI [12]: 30.9 µM; TGI [13]: 31.8 µM; TGI [14]: 32.9 µM; TGI [15]: 31.6 µM; TGI [16]: 31.5 µM; TGI [17]: 32.3 µM; TGI [18]: 29.3 µM; TGI [19]: 55.8 µM; TGI [20]: 54.3 µM; TGI [21]: 28.2 µM; TGI [22]: 32.1 µM; TGI [23]: 25.3 µM; TGI [24]: 97.5 µM; TGI [25]: 50.4 µM; TGI [26]: 30.9 µM; TGI [27]: 30.7 µM; TGI [28]: 28.7 µM; TGI [29]: 27.4 µM; TGI [30]: 68.3 µM; TGI [31]: 34.8 µM; TGI [32]: > 100 µM; TGI [33]: 41 µM; TGI [34]: 44.4 µM; TGI [35]: 22.8 µM; TGI [36]: 37.2 µM; TGI [37]: 31.8 µM; TGI [38]: 31 µM; TGI [39]: 29.9 µM; TGI [40]: 35.6 µM; TGI [41]: 40.2 µM; TGI [42]: 29.3 µM; TGI [43]: 28.2 µM; TGI [44]: 24 µM; TGI [45]: 21 µM; TGI [46]: 35.2 µM; TGI [47]: 31.1 µM; TGI [48]: > 100 µM; TGI [49]: 30.4 µM; TGI [50]: 28 µM; TGI [51]: 20.8 µM; TGI [52]: 70 µM; TGI [53]: > 100 µM; TGI [54]: 34 µM; TGI [55]: 31.9 µM; TGI [56]: 29.5 µM; TGI [57]: 27.6 µM; TGI [58]: 33.8 µM

Q: COc1ccc(N2C(=O)/C(=C\c3ccccc3)SC2c2cc(OC)c(OC)c(OC)c2)cc1 (stereo not drawn) was tested. Which TGI [1] did it give?
A: Its TGI is over 100 µM.

Q: What about the TGI [2] of the same compound?
A: Its TGI is over 100 µM.

Q: And the TGI [3]?
A: Its TGI is over 100 µM.

Q: What about the TGI [4] of the same compound?
A: The TGI was over 100 µM.

Q: What about the TGI [5] of the same compound?
A: The TGI was over 100 µM.

Q: And the TGI [6]?
A: Its TGI is over 100 µM.

Q: And the TGI [7]?
A: Its TGI is over 100 µM.

Q: And the TGI [8]?
A: Its TGI is 44.8 µM.

Q: What about the TGI [9] of the same compound?
A: Its TGI is over 100 µM.

Q: And the TGI [10]?
A: The TGI was over 100 µM.

Q: What about the TGI [11] of the same compound?
A: Its TGI is over 100 µM.

Q: And the TGI [12]?
A: The TGI was over 100 µM.

Q: What about the TGI [16] of the same compound?
A: The TGI was over 100 µM.

Q: And the TGI [17]?
A: Its TGI is over 100 µM.

Q: And the TGI [18]?
A: Its TGI is over 100 µM.

Q: And the TGI [19]?
A: Its TGI is over 100 µM.

Q: What about the TGI [20] of the same compound?
A: Its TGI is over 100 µM.

Q: What about the TGI [21] of the same compound?
A: The TGI was over 100 µM.

Q: And the TGI [22]?
A: Its TGI is over 100 µM.

Q: What about the TGI [25] of the same compound?
A: Its TGI is over 100 µM.

Q: And the TGI [26]?
A: The TGI was over 100 µM.

Q: And the TGI [28]?
A: Its TGI is over 100 µM.

Q: And the TGI [29]?
A: The TGI was over 100 µM.

Q: And the TGI [30]?
A: The TGI was over 100 µM.

Q: And the TGI [32]?
A: The TGI was over 100 µM.

Q: And the TGI [33]?
A: The TGI was over 100 µM.

Q: What about the TGI [34] of the same compound?
A: The TGI was over 100 µM.

Q: What about the TGI [35] of the same compound?
A: The TGI was 75.9 µM.

Q: And the TGI [36]?
A: The TGI was over 100 µM.

Q: And the TGI [37]?
A: The TGI was over 100 µM.

Q: What about the TGI [38] of the same compound?
A: The TGI was over 100 µM.

Q: And the TGI [40]?
A: The TGI was over 100 µM.

Q: What about the TGI [41] of the same compound?
A: The TGI was over 100 µM.

Q: And the TGI [42]?
A: The TGI was over 100 µM.

Q: What about the TGI [43] of the same compound?
A: The TGI was over 100 µM.

Q: What about the TGI [44] of the same compound?
A: Its TGI is over 100 µM.

Q: What about the TGI [45] of the same compound?
A: Its TGI is over 100 µM.

Q: And the TGI [46]?
A: Its TGI is over 100 µM.

Q: And the TGI [47]?
A: The TGI was over 100 µM.

Q: What about the TGI [49] of the same compound?
A: Its TGI is over 100 µM.

Q: And the TGI [50]?
A: The TGI was 79.7 µM.

Q: What about the TGI [51] of the same compound?
A: Its TGI is over 100 µM.

Q: And the TGI [52]?
A: The TGI was over 100 µM.

Q: What about the TGI [59] of the same compound?
A: The TGI was 75.7 µM.

Q: What about the TGI [53] of the same compound?
A: The TGI was over 100 µM.

Q: What about the TGI [54] of the same compound?
A: The TGI was over 100 µM.

Q: And the TGI [55]?
A: The TGI was over 100 µM.

Q: What about the TGI [56] of the same compound?
A: Its TGI is over 100 µM.

Q: What about the TGI [57] of the same compound?
A: The TGI was over 100 µM.

Q: What about the TGI [58] of the same compound?
A: The TGI was over 100 µM.
